Legend:
Type in all cases: cell-based, human
[1] = tested on: VEGF secretion by myeloma cells and BMSCs; test: VEGF ELISA, MM cells and BMSCs alone and in co-culture; conditions: 500 nM for 24 hrs
Experimental: Flow cytometric analyses for IGF-1R, and IGF-2R were performed as previously described on a EPICS-XL-MCL flow cytometer (Beckman Coulter). Previously described protocols were applied for immunoblotting analyses; TRAP telomerase activity assay; 20S proteasome chymotryptic activity assay; DNA binding activity ELISAs for quantitative assessments of NF-κB and HIF-1a transcriptional activities. VEGF and IGF-1 ELISAs were performed according to manufacturer's instructions (R&D Systems, Minneapolis, Minn.).

HIF-1α = HIF-1α DNA binding activity ELISA
Experimental: Flow cytometric analyses for IGF-1R, and IGF-2R were performed as previously described on a EPICS-XL-MCL flow cytometer (Beckman Coulter). Previously described protocols were applied for immunoblotting analyses; TRAP telomerase activity assay; 20S proteasome chymotryptic activity assay; DNA binding activity ELISAs for quantitative assessments of NF-κB and HIF-1a transcriptional activities. VEGF and IGF-1 ELISAs were performed according to manufacturer's instructions (R&D Systems, Minneapolis, Minn.). 20S proteasome chymotryptic activity assay was performed as described [Shringarpure 2003]. The transcriptional activity of DNA binding activity of NF-κB and HIF-1α was measured as previously reported. Libermann T A, et al., . Proc Natl Acad Sci USA; 2002 99: 14374-14379; Mitsiades N. et al., 2002, 99: 4079-4086; Mitsiades N. et al., 2002; Blood 99: 4525-4530 and Mitsiades N., et al 2003 Blood; 101: 2377-2380.

MM cells = test: Gene expression and proteomic profiling of IGF-1R inhibition; conditions: expression profiling, proteomic analyses, confirmatory assays
Experimental: Subsequent analysis of scanned image output files were analyzed with Affymetrix GeneChip Microarray Analysis Suite 5.0 software (Affymetrix), normalized and analyzed by hierarchical clustering, functional clustering and relevance network algorithms, as in previous studies. High-throughput global proteomic analysis of the signaling state of IGF-1R-inhibitor-treated MM cells was performed by multiplex-immunoblotting arrays using the KPKS-1.0 and KPSS-1.0 platforms, as previously described (Mitsiades C S et al. Semin Oncol. April 2003; 30(2): 156-60 and Mitsiades N et al. Blood. Mar. 15, 2003; 101(6): 2377-80).
Total RNA was extracted and purified with the Qiagen RNeasy kit (Qiagen, San Diego, Calif.). Five micrograms of total RNA was used in the first-strand cDNA synthesis with T7-d(T)24 primer ([…]-(dT)24) (SEQ ID NO: 1) and Superscript II (GIBCO-BRL, Rockville, Md.). The second-strand cDNA synthesis was carried out at 16° C. by adding Escherichia coli DNA ligase, E. coli DNA polymerase I, and RNase H to the reaction, followed by T4 DNA polymerase to blunt the ends of newly synthesized cDNA. The cDNA was purified through phenol/chloroform and ethanol precipitation. […] Scanned image output files were visually examined for major chip defects and hybridization artifacts and then analyzed with Affymetrix GeneChip® (array) Microarray Analysis Suite 5.0 software (Affymetrix). […]

## Nc1ncnc2c1c(-c1cccc(OCc3ccccc3)c1)cn2[C@H]1C[C@H](CN2CCCC2)C1 [ADW-742, trans-5-(3-benzyloxy-phenyl)-7-(3-pyrrolidin-1-ylmethyl-cyclobutyl)-7H-pyrrolo[2,3-d]pyrimidin-4-ylamine]
[1]
  constitutive and co-culture-induced secretion of VEGF: suppresses
HIF-1α
  IGF-1-induced HIF-1α activity: suppress
MM cells
  proliferative/anti-apoptotic molecular events associated with exposure to IGF-1 or serum: suppressed

From patent US7781393B2, “Methods for inhibiting tumor cell growth” (Dana-Farber Cancer Institute, Inc., priority 2004, dated 2010)
